Measurements from patent US20240376098A1, “METHODS OF TREATMENT USING BCN057, BCN077 AND ANALOGS” (BCN Biosciences L.L.C., priority 2021, published 2024).

Target: T1, GSK3b in non-transformed cell types such as HEK298 (Homo sapiens, UniProt P49841)
T1 construct: endogenous in cells; host or cells: HEK298 (so in the source)
Assay: GSK3b inhibition in non-transformed cells
Type: cell-based
Description: To investigate the role BCN057 may have in the restoration of apoptosis in this cell line, the GSK3b-c-Jun relationship was assessed as it has been directly linked to apoptosis. Others have reported a link with GSK3b and c-Jun and apoptosis along with the fact that […] is over expressed in the oncogenic KRAS phenotype.

T1 sequence (P49841 whole entry): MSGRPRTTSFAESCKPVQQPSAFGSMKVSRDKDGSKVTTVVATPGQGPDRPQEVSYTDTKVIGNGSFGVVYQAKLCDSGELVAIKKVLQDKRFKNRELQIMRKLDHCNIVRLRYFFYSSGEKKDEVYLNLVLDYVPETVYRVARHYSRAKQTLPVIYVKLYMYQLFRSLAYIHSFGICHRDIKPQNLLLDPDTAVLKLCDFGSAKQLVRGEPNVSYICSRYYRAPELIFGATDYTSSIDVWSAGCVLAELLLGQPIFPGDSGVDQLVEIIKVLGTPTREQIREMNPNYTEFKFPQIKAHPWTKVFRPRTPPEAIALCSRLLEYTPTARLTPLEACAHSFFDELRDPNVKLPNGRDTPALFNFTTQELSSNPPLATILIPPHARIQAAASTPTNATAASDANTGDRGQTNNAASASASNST

COc1ccc2cc(-c3nc4ccc(C)cn4c3NCc3ccco3)c(=O)[nH]c2c1 [BCN057, 3-[(Furan-2-ylmethyl)-amino]-2-(7-methoxy-2-oxo-1,2-dihydro-quinolin-3-yl)-6-methyl-imidazo[1,2-a]pyridin-1-ium]
GSK3b inhibition: inhibition was noted
